This passage reports IC50 results from US20250346593A1, “IMIDAZO(1,2-1)PYRIDINE DERIVATIVES AS RIPK2 INHIBITORS” (Interline Therapeutics, Inc., priority 2022, published 2025).

pIC50: −log10 of the molar value. Where two headings read alike, the source gives them in different places. Bounds are passed on as bounds.

Assay [1] concerns NF-κB pathway (SEAP) in THP1-Dual cells. The experiment in a line: THP-1 Dual cell SEAP assay (L18-MDP stimulated). To be noted: Homo sapiens, THP1-Dual, read-out: NFkB THP1 IC50. Format: cell-based.
Assay [2] has as its target GST-RIPK2 fusion protein (human RIPK2 amino acids 1-310) (Homo sapiens (Human), UniProt O43353). The experiment in a line: RIPK2 binding competition assay (TR-FRET, Tracer 199). (Time-resolved FRET reads energy transfer from a long-lived donor to a nearby acceptor.)
The mark [3] stands for this setting: read-out: RIPK2 IC50, RIPK2 binding competition assay.

GST-RIPK2 fusion protein (human RIPK2 amino acids 1-310), sequence (O43353 1-310): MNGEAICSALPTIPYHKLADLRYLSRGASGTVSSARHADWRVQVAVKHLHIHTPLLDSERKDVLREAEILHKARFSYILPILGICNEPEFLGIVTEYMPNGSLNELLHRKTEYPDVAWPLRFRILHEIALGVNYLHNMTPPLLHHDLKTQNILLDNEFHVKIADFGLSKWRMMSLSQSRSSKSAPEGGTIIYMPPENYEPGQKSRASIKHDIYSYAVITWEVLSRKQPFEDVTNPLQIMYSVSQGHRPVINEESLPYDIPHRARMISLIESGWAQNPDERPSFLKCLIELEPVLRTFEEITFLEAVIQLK

As usually defined, the pIC50 is the negative decadic logarithm of the IC50, by convention in mol/L. In the case of `CCCS(=O)(=O)Nc1nc(-c2cnc3cc(OC)c(S(=O)(=O)C(C)(C)C)cn23)ccc1CC` [Example 160, N-(6-(6-(tert-butylsulfonyl)-7-methoxyimidazo[1,2-a]pyridin-3-yl)-3-ethylpyridin-2-yl)propane-1-sulfonamide], the pIC50 is under 6.00 in assay [1] and under 7.70 in assay [2] (setting [3]).

For `COc1cc2ncc(-c3cc(N)c(=O)n(C(F)F)c3)n2cc1S(=O)(=O)C(C)(C)C` [Example 328, 3-amino-5-(6-(tert-butylsulfonyl)-7-methoxyimidazo[1,2-a]pyridin-3-yl)-1-(difluoromethyl) pyridin-2(1H)-one], the pIC50 is under 6.00 in assay [1] and under 7.70 in assay [2] (setting [3]).

With `COc1cc2ncc(-c3cc(N)nc(F)c3)n2cc1S(=O)(=O)C(C)(C)C` [Example 215, 4-(6-(tert-butylsulfonyl)-7-methoxyimidazo[1,2-a]pyridin-3-yl)-6-fluoropyridin-2-amine], the pIC50 is over 7.30 in assay [1] and over 9.00 in assay [2] (setting [3]).

Regarding `COc1cc2ncc(-c3cc(F)nc(NCC4(CO)CC4)c3)n2cc1S(=O)(=O)C(C)(C)C` [Example 201, (1-(((4-(6-(tert-butylsulfonyl)-7-methoxyimidazo[1,2-a]pyridin-3-yl)-6-fluoropyridin-2-yl)amino)methyl)cyclo-propyl)methanol], the pIC50 in assay [1] is over 7.30; in assay [2], 8.60 to 9.00.

Take `COc1cc(-c2cnc3cc(OC)c(S(=O)(=O)C(C)(C)C)cn23)cc(NS(C)(=O)=O)n1` [Example 264, N-(4-(6-(tert-butylsulfonyl)-7-methoxyimidazo[1,2-a]pyridin-3-yl)-6-methoxypyridin-2-yl)methanesulfonamide]: the pIC50 in assay [1] was 6.00 to 6.60; in assay [2], 7.70 to 8.60.

Turning to `COc1cc2ncc(-c3cc(F)nc(N[C@@H]4CC[C@H](O)C4)c3)n2cc1S(=O)(=O)C(C)(C)C` (racemic) [Example 192, rac-(1R,3S)-3-((4-(6-(tert-butylsulfonyl)-7-methoxyimidazo[1,2-a]pyridin-3-yl)-6-fluoropyridin-2-yl)amino)cyclopentan-1-ol], the values for the pIC50 in assay [1] and in assay [2] were over 7.30 and over 9.00, respectively.

In the case of `COc1cc2ncc(-c3cc(F)nc(NCc4ccccc4)c3)n2cc1S(=O)(=O)C(C)(C)C` [Example 175, N-benzyl-4-(6-(tert-butylsulfonyl)-7-methoxyimidazo[1,2-a]pyridin-3-yl)-6-fluoropyridin-2-amine], the pIC50 was over 7.30 in assay [1] and over 9.00 in assay [2].

Regarding `CCCS(=O)(=O)Nc1cc(-c2cnc3cc(OC)c(C(C)(C)O)cn23)cc(F)c1OC` [Example 146, N-(3-fluoro-5-(6-(2-hydroxypropan-2-yl)-7-methoxyimidazo[1,2-a]pyridin-3-yl)-2-methoxyphenyl)propane-1-sulfonamide], the results for the negative-log IC50 (pIC50) in assay [1] and in assay [2] were 6.60 to 7.30 and 8.60 to 9.00, respectively.

For `COc1cc2ncc(-c3cc(OC)c(N)nc3F)n2cc1S(=O)(=O)C(C)(C)C` [Example 74, 5-(6-(tert-butylsulfonyl)-7-methoxyimidazo[1,2-a]pyridin-3-yl)-6-fluoro-3-methoxypyridin-2-amine], the negative logarithm of the IC50 (pIC50) is under 6.00 in assay [1] and 7.70 to 8.60 in assay [2].

With `COc1cn2ncc(-c3ccc(N)c(C#N)c3)c2cc1S(=O)(=O)C(C)(C)C` [Example 95, 2-amino-5-(5-(tert-butylsulfonyl)-6-methoxypyrazolo[1,5-a]pyridin-3-yl)benzonitrile], the negative-log IC50 (pIC50) in assay [1] was 6.00 to 6.60; in assay [2], 7.70 to 8.60.

As for `CCOc1cc2ncc(-c3cnc(N)c(F)c3)n2cc1S(=O)(=O)C(C)C` [Example 117, 5-[6-ethoxy-5-(isopropylsulfonyl)-1,3a-diaza-3-indenyl]-3-fluoro-2-pyridylamine], the negative-log IC50 (pIC50) in assay [1] was under 6.00; in assay [2] (setting [3]), under 7.70.

With `COc1cc2ncc(-c3cc(F)c(N)nc3OC(C)C)n2cc1S(=O)(=O)C(C)(C)C` [Example 113, 5-(6-(tert-butylsulfonyl)-7-methoxyimidazo[1,2-a]pyridin-3-yl)-3-fluoro-6-isopropoxypyridin-2-amine], the negative-log IC50 (pIC50) in assay [1] is under 6.00; in assay [2] (setting [3]), under 7.70.

Turning to `COc1cc2ncc(-c3cc(F)nc(NC[C@@H](F)CO)c3)n2cc1S(=O)(=O)C(C)(C)C` [Example 229, (2R)-2-fluoro-3-({6-fluoro-4-[7-methoxy-6-(2-methylpropane-2-sulfonyl)imidazo[1,2-a]pyridin-3-yl]pyridin-2-yl}amino)propan-1-ol], the pIC50 was over 7.30 in assay [1] and over 9.00 in assay [2] (setting [3]).

Consider `COc1cc2ncc(-c3cc(F)nc(N[C@@H]4CC[C@@H](O)C4)c3)n2cc1S(=O)(=O)C(C)(C)C` (racemic) [Example 197, rac-(1R,3R)-3-((4-(6-(tert-butylsulfonyl)-7-methoxyimidazo[1,2-a]pyridin-3-yl)-6-fluoropyridin-2-yl)amino)cyclopentan-1-ol], for which the pIC50 in assay [1] was over 7.30; in assay [2] it was 8.60 to 9.00.

For the molecule `CCCS(=O)(=O)Nc1cc(-c2cnc3cc(OC)c(S(=O)(=O)C(C)(C)C)cn23)cc(OC(F)F)n1` [Example 145, N-(4-(6-(tert-butylsulfonyl)-7-methoxyimidazo[1,2-a]pyridin-3-yl)-6-(difluoromethoxy)pyridin-2-yl)propane-1-sulfonamide], the pIC50 in assay [1] is 6.00 to 6.60; in assay [2], 8.60 to 9.00.

Regarding `COc1cc2ncc(-c3cc(NCCCO)cc(F)n3)n2cc1S(=O)(=O)C(C)(C)C` [Example 252, 3-((2-(6-(tert-butylsulfonyl)-7-methoxyimidazo[1,2-a]pyridin-3-yl)-6-fluoropyridin-4-yl)amino)propan-1-ol], the pIC50 in assay [1] was 6.00 to 6.60; in assay [2] (setting [3]) it was under 7.70.

On to `COc1cc2ncc(-c3cc(NCCCO)ncc3F)n2cc1S(=O)(=O)C(C)(C)C` [Example 310, 3-((4-(6-(tert-butylsulfonyl)-7-methoxyimidazo[1,2-a]pyridin-3-yl)-5-fluoropyridin-2-yl)amino)propan-1-ol], for which the pIC50 in assay [1] was under 6.00; in assay [2] (setting [3]), under 7.70.

Consider `COc1cc2ncc(-c3cc(F)nc(NCC4(O)CC4)c3)n2cc1S(=O)(=O)C(C)(C)C` [Example 208, 1-(((4-(6-(tert-butylsulfonyl)-7-methoxyimidazo[1,2-a]pyridin-3-yl)-6-fluoropyridin-2-yl)amino)methyl) cyclopropan-1-ol], for which the negative logarithm of the IC50 (pIC50) was over 7.30 in assay [1] and 8.60 to 9.00 in assay [2].

Regarding `COc1cc2ncc(-c3cc(F)nc(NC[C@@H](O)CO)c3)n2cc1S(=O)(=O)C(C)(C)C` [Example 195, (R)-3-((4-(6-(tert-butylsulfonyl)-7-methoxyimidazo[1,2-a]pyridin-3-yl)-6-fluoropyridin-2-yl)amino)propane-1,2-diol], the pIC50 in assay [1] is over 7.30; in assay [2] (setting [3]), over 9.00.

Take `CC(C)(C)S(=O)(=O)c1cn2c(-c3cc(F)c(N)nc3F)cnc2cc1OC(F)F` [Example 116, 5-(6-(tert-butylsulfonyl)-7-(difluoromethoxy)imidazo[1,2-a]pyridin-3-yl)-3,6-difluoropyridin-2-amine]: the negative-log IC50 (pIC50) in assay [1] was under 6.00; in assay [2] it was 7.70 to 8.60.

With `CCCS(=O)(=O)Nc1cc(-c2cnc3cc(OC)c(S(=O)(=O)C(C)(C)C)cn23)cnc1OC` [Example 265, N-(5-(6-(tert-butylsulfonyl)-7-methoxyimidazo[1,2-a]pyridin-3-yl)-2-methoxypyridin-3-yl)propane-1-sulfonamide], the negative logarithm of the IC50 (pIC50) is 6.60 to 7.30 in assay [1] and 7.70 to 8.60 in assay [2].

As to `COc1cn2ncc(-c3cc(NS(C)(=O)=O)c(OC)c(OC)c3)c2cc1S(=O)(=O)C(C)(C)C` [Example 141, N-(5-(5-(tert-butylsulfonyl)-6-methoxypyrazolo[1,5-a]pyridin-3-yl)-2,3-dimethoxyphenyl) methanesulfonamide], the negative-log IC50 (pIC50) in assay [1] is 6.60 to 7.30; in assay [2], 8.60 to 9.00.

Regarding `COc1cc2ncc(-c3ccc(N)nc3C#N)n2cc1S(=O)(=O)C(C)(C)C` [Example 108, 6-amino-3-(6-(tert-butylsulfonyl)-7-methoxyimidazo[1,2-a]pyridin-3-yl)picolinonitrile], the pIC50 in assay [1] is under 6.00; in assay [2] (setting [3]) it was under 7.70.

Regarding `COc1cc2ncc(-c3cc(F)nc(NCC[C@H]4CNC(=O)C4)c3)n2cc1S(=O)(=O)C(C)(C)C` (single isomer, unassigned) [Example 240, (4R or S)-4-[2-({6-fluoro-4-[7-methoxy-6-(2-methylpropane-2-sulfonyl)imidazo[1,2-a]pyridin-3-yl]pyridin-2-yl}amino)ethyl] pyrrolidin-2-one], the pIC50 is over 7.30 in assay [1] and over 9.00 in assay [2].

Regarding `CCCS(=O)(=O)Nc1cc(OC(F)(F)F)cc(-c2cnc3cc(OC)c(S(=O)(=O)C(C)(C)C)cn23)c1` [Example 135, N-{3-[7-methoxy-6-(2-methylpropane-2-sulfonyl)imidazo[1,2-a]pyridin-3-yl]-5-(trifluoromethoxy)phenyl}propane-1-sulfonamide], the figures for the pIC50 in assay [1] and in assay [2] were under 6.00 and 7.70 to 8.60, respectively.

In the case of `COc1cc2ncc(-c3cc(NCCCO)nc(C(F)(F)F)c3)n2cc1S(=O)(=O)C(C)(C)C` [Example 232, 3-({4-[7-methoxy-6-(2-methylpropane-2-sulfonyl)imidazo[1,2-a]pyridin-3-yl]-6-(trifluoromethyl)pyridin-2-yl}amino)propan-1-ol], the pIC50 in assay [1] is 6.00 to 6.60; in assay [2], 7.70 to 8.60.

Turning to `CC(C)(C)S(=O)(=O)c1ccn2ncc(-c3cc(N)nc(F)c3)c2c1` [Example 298, 4-(5-(tert-Butylsulfonyl)pyrazolo[1,5-a]pyridin-3-yl)-6-fluoropyridin-2-amine], the pIC50 in assay [1] is 6.60 to 7.30; in assay [2], 7.70 to 8.60.

For `COc1ccn2c(-c3cc(F)nc(NCCCO)c3)cnc2c1` [Example 234, 3-[(6-fluoro-4-{7-methoxyimidazo[1,2-a]pyridin-3-yl}pyridin-2-yl)amino]propan-1-ol], the pIC50 is 6.60 to 7.30 in assay [1] and 7.70 to 8.60 in assay [2].
